# Source: patent US11780851B2, “LRRK2 inhibitors” (H. Lundbeck A/S, priority 2021, dated 2023)
# Entries after “also recorded” stand apart in the source; their conditions may differ. Read-outs that look alike come from different tables or passages of the source.
# What was measured:
# [1] = GSH adduct screening; type: in vitro ADME, human; conditions: 1 μM, 3 h at 37° C., HLM 0.5 mg/mL, NADPH, with and without GSH
# Method: Test compounds (final concentration 1 μM, 0.25% organic) were incubated for 3 h at 37° C. in commercially sourced, pooled donor, human liver microsomes (HLM, final concentration 0.5 mg/mL) with and without addition of glutathione (GSH; final concentration […]). The metabolic reaction was initiated by addition of microsomal solution to the mixture of cofactor NADPH (final concentration 1 mM), test compound and GSH. After 3 h of incubation in a water bath at 37° C., the reaction was stopped by addition of 0.2% formic acid in acetonitrile, followed by mixing and centrifugation (16000 g for 5 minutes). Supernatant was diluted (1:1) with HPLC water then analyzed by liquid chromatography (LC)-quadrupole time-of-flight mass spectrometry (QTOF-MS). Accurate mass MS and MS/MS spectra from samples with GSH and without GSH, respectively, were compared to identify detectable GSH and/or cysteine related adducts.
# [2] = Minipig B/P (brain disposition); type: in vivo, female Gottingen minipigs; conditions: female, Gottingen, mean ± stdev
# Method: Brain disposition of Example 13 was evaluated in female Gottingen minipigs (n=3, body weight range 13-14 kg). […] At the end of infusion (2 h) the minipigs were sacrificed and terminal blood as well as brain samples were taken (n=3). Isolated plasma and brain homogenates were extracted by standard protein precipitation in acetonitrile, containing internal standard, followed by LC-MS/MS analysis using an optimized analytical method. Concentrations of test compound in plasma and brain were quantified against matrix matched calibration standards. The total plasma and brain concentration time data are presented in Table 6 alongside the calculated brain Kp (total brain concentration:total plasma concentration ratio).
# [3] = Rat B/P (brain disposition); type: in vivo, male Sprague-Dawley rats; conditions: for concentration at 1 h / Kp at 1 h / Kp uu at 1 h: male, Sprague-Dawley, time point 1.0 h; for Kp at 1 h / Kp uu at 1 h: brain/plasma; for Kp at 1 h: n = 3; for Kp uu at 1 h: po
# Method in brief: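 Male Sprague-Dawley rats (n=3, standard body weight) were used to assess brain disposition. Plasma and brain homogenates underwent protein precipitation with acetonitrile containing internal standard, then LC-MS/MS measurement using an optimized method. Compound levels were quantified against matrix-matched calibration standards, and brain Kp was calculated as total brain concentration divided by total plasma concentration.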
compound,measurement,setting,value
"[2H]C([2H])([2H])c1c2c(nn1C1CCOCC1)OCCCn1nc(Cl)c3cnc(nc31)N2 [Example 13, 8-Chloro-3-(methyl-d3)-2-(tetrahydro-2H-pyran-4-yl)-2,4,12,13-tetrahydro-11H-5,7-(azenometheno)dipyrazolo[3,4-b:5′,1′-g][1]oxa[4,6,8]triazacycloundecine]",Adduct detected in GSH supplemented HLMs,[1],did not form GSH adduct; also recorded: None detected
same,concentration at 2 h,"[2]; brain, IV bolus 0.28 mg/kg + IV infusion 0.60 mg/kg, time point 2.00 h, n = 3, read-out: CTotal, brain",151 ± 11 ng/mL
same,Kp at 2 h,"[2]; intravenous, total brain:total plasma concentration ratio, time point 2.00 h, n = 3",1.63 ± 0.08
same,concentration at 0.083 h,"[2]; plasma, IV bolus 0.28 mg/kg + IV infusion 0.60 mg/kg, time point 0.083 h, n = 3, read-out: CTotal, plasma",95 ± 18 ng/mL
same,concentration at 0.5 h,"[2]; plasma, IV bolus 0.28 mg/kg + IV infusion 0.60 mg/kg, time point 0.50 h, n = 3, read-out: CTotal, plasma",89 ± 20 ng/mL
same,concentration at 1 h,"[2]; plasma, IV bolus 0.28 mg/kg + IV infusion 0.60 mg/kg, time point 1.00 h, n = 3, read-out: CTotal, plasma",91 ± 9 ng/mL
same,concentration at 1.5 h,"[2]; plasma, IV bolus 0.28 mg/kg + IV infusion 0.60 mg/kg, time point 1.50 h, n = 3, read-out: CTotal, plasma",106 ± 13 ng/mL
same,concentration at 1.83 h,"[2]; plasma, IV bolus 0.28 mg/kg + IV infusion 0.60 mg/kg, time point 1.83 h, n = 3, read-out: CTotal, plasma",105 ± 8 ng/mL
same,concentration at 2 h,"[2]; plasma, IV bolus 0.28 mg/kg + IV infusion 0.60 mg/kg, time point 2.00 h, n = 3, read-out: CTotal, plasma",93 ± 11 ng/mL
same,"extent of brain penetration, classified from rat brain Kp,uu values","[3]; Table 8, brain free fraction from brain slice model",moderately high brain penetrant
same,concentration at 1 h,"[3]; brain, oral gavage 1 mg/kg, Table 8, read-out: Total brain concentration",130 ± 27 ng/mL
same,concentration at 1 h,"[3]; brain, oral gavage 1 mg/kg, mean ± stdev, n = 3, read-out: Total brain concentration",130 ± 27 ng/g
same,concentration at 1 h,"[3]; brain, oral gavage 3 mg/kg, Table 8, read-out: Total brain concentration",597 ± 169 ng/mL
same,concentration at 1 h,"[3]; brain, oral gavage 3 mg/kg, mean ± stdev, n = 3, read-out: Total brain concentration",597 ± 169 ng/g
same,concentration at 1 h,"[3]; brain, oral gavage 10 mg/kg, Table 8, read-out: Total brain concentration",2030 ± 462 ng/mL
same,concentration at 1 h,"[3]; brain, oral gavage 10 mg/kg, mean ± stdev, n = 3, read-out: Total brain concentration",2030 ± 462 ng/g
same,Kp at 1 h,"[3]; oral gavage 1 mg/kg, mean ± stdev",1.76 ± 0.04
same,Kp at 1 h,"[3]; oral gavage 3 mg/kg, mean ± stdev",1.74 ± 0.1
same,Kp at 1 h,"[3]; oral gavage 10 mg/kg, mean ± stdev",1.3 ± 0.22
same,Kp uu at 1 h,"[3]; 1 mg/kg, oral gavage 1 mg/kg, brain free fraction from rat brain slice model",0.54 ± 0.01
same,Kp uu at 1 h,"[3]; 1 mg/kg, oral gavage 1 mg/kg, fubrain from brain homogenate",0.38 ± 0.01
same,Kp uu at 1 h,"[3]; 3 mg/kg, oral gavage 3 mg/kg, brain free fraction from rat brain slice model",0.54 ± 0.03
same,Kp uu at 1 h,"[3]; 3 mg/kg, oral gavage 3 mg/kg, fubrain from brain homogenate",0.38 ± 0.02
same,Kp uu at 1 h,"[3]; 10 mg/kg, oral gavage 10 mg/kg, brain free fraction from rat brain slice model",0.4 ± 0.07
same,Kp uu at 1 h,"[3]; 10 mg/kg, oral gavage 10 mg/kg, fubrain from brain homogenate",0.28 ± 0.05
same,concentration at 1 h,"[3]; plasma, oral gavage 1 mg/kg, mean ± stdev, n = 3, read-out: Total plasma concentration",74 ± 17 ng/mL
same,concentration at 1 h,"[3]; plasma, oral gavage 3 mg/kg, mean ± stdev, n = 3, read-out: Total plasma concentration",340 ± 78 ng/mL
same,concentration at 1 h,"[3]; plasma, oral gavage 10 mg/kg, mean ± stdev, n = 3, read-out: Total plasma concentration",1640 ± 655 ng/mL
